Consider twelve molecules from patent US20160129122A1, “FATTY ACID ANTIVIRAL CONJUGATES AND THEIR USES” (Catabasis Pharmaceuticals, Inc., priority 2011, published 2016).

Structures are written as SMILES. Read-outs that look alike come from different tables or passages of the source. Some results are limits rather than exact numbers.

For orientation: IC50 means the concentration that inhibits the measured activity by half.

In assay [1] the test system is NF-κB. As to the kind of experiment: NF-κB luciferase reporter assay in LPS-stimulated RAW 264.7 macrophages. The assay is classed as cell-based. The note with it: Mus musculus. The method, then: RAW 264.7 cells stably expressing a 3×NFkB response element-drive luciferase reporter were seeded into 96 well plates in sera-free medium (Optimem) 18 hours prior to compound application. Compounds of the invention were prepared by first making 100 mM stock solutions in EtOH. […] Cells were then stimulated with 200 ng/ml LPS or vehicle control for 3 hours in the presence of the compounds of the invention. A set of six vehicles was left unstimulated with LPS in order to measure the assay floor. AlamarBlue viability dye (Invitrogen) was added to cells simultaneously with the delivery of LPS (final AlamarBlue concentration of 10%). After the 3 h incubation period with LPS, cell viability was measured by reading fluorescence (excitation 550 nm, emission 595 nm) with a Perkin Elmer Victor V plate reader. Then cell media was aspirated from each well. Luciferase signal was then developed by addition of the Britelite Plus reagent (Perkin Elmer). Luciferase activity was measured with the Perkin Elmer Victor V plate reader. NF-κB activity was expressed as a percent of the vehicle control wells (stimulated with LPS). Compounds were tested at 6 dose point titrations in triplicate to determine IC50 values.
On the technique in general: A reporter such as luciferase makes a cellular process visible.

Assay [2] relates to HIV-1IIIB strain. As to the kind of experiment: HIV-1 cytoprotection assay (CEM-SS cells, MTS dye reduction). The assay is classed as cell-based.
The mark [3] stands for this setting: RAW264.7, read-out: NF-kB inhibitory activity IC50 μM.
The mark [4] stands for this setting: Human immunodeficiency virus 1, IIIB, CEM-SS, 144 h, read-out: IC50 HIV-1IIIB strain (nM).
[5] abbreviates: RAW264.7, RAW 264.7 cells with 3×NFkB response element luciferase reporter, 2 h pretreatment, 200 ng/ml LPS for 3 h, read-out: NF-kB inhibitory activity IC50.
Setting [6] is: Human immunodeficiency virus 1, 144 h, CEM-SS cells, HIV-1 IIIB strain, 6 days incubation, cytoprotection by MTS, read-out: IC50 HIV-1IIIB strain.

Turning to `CC(C)CN(C[C@@H](O)[C@H](Cc1ccccc1)NC(=O)O[C@H]1CO[C@H]2OCC[C@H]21)S(=O)(=O)c1ccc(N)cc1` [Darunavir, darunavir, reference compound], the concentration for half-maximal inhibition (IC50) in assay [1] (setting [3]) was greater than 200 µM. Consider `CC/C=C\C/C=C\C/C=C\C/C=C\C/C=C\C/C=C\CCC(=O)Nc1ccc(S(=O)(=O)N(CC(C)C)C[C@@H](O)[C@H](Cc2ccccc2)NC(=O)O[C@H]2CO[C@H]3OCC[C@H]32)cc1` [VII-1, (3R,3aS,6aR)-hexahydrofuro[2,3-b]furan-3-yl((2S,3R)-4-(4-((4Z,7Z,10Z,13Z,16Z,19Z)-docosa-4,7,10,13,16,19-hexaenamido)-N-isobutylphenylsulfonamido)-3-hydroxy-1-phenylbutan-2-yl)carbamate], for which the 50% inhibitory concentration (IC50) was less than 100 nM in assay [2] (setting [4]) and 50 to 200 µM in assay [1] (setting [3]). With `CC/C=C\C/C=C\C/C=C\C/C=C\C/C=C\CCCC(=O)NCCNP(=O)(OC)OC[C@@H]1O[C@H](n2ccc(N)nc2=O)CS1` (stereo partly drawn) [II-70, ((2R,5S)-5-(4-amino-2-oxopyrimidin-1(2H)-yl)-1,3-oxathiolan-2-yl)methyl methyl (2-((5Z,8Z,11Z,14Z,17Z)-icosa-5,8,11,14,17-pentaenamido)ethyl)phosphoramidate], the IC50 in assay [1] (setting [3]) was 50 to 200 µM.

With `CC/C=C\C/C=C\C/C=C\C/C=C\C/C=C\C/C=C\CCC(=O)NCCOCCNC(=O)OC[C@H]1OC(n2cc(C)c(=O)[nH]c2=O)C[C@@H]1N=[N+]=[N-]` (stereo partly shown) [Compound V-8], the half-inhibitory concentration (IC50) in assay [1] (setting [5]) lay in the range of 50 to 200 µM.

Take `CC/C=C\C/C=C\C/C=C\C/C=C\C/C=C\CCCC(=O)NCCNP(=O)(OC)OC[C@H]1OC(n2cc(C)c(=O)[nH]c2=O)C[C@@H]1N=[N+]=[N-]` (stereo partly shown) [II-30]: the figures for the IC50 in assay [2] (setting [4]) and in assay [1] (setting [3]) were greater than 100 nM and less than 50 µM, respectively. The like results for `CC/C=C\C/C=C\C/C=C\C/C=C\C/C=C\C/C=C\CCC(=O)NCCNC(=O)OC[C@@H]1OC(n2ccc(N)nc2=O)CS1` (stereo partly drawn) [Compound V-21, ((2R,5S)-5-(4-amino-2-oxopyrimidin-1(2H)-yl)-1,3-oxathiolan-2-yl)methyl(2-((4Z,7Z,10Z,13Z,16Z,19Z)-docosa-4,7,10,13,16,19-hexaenamido)ethyl)carbamate] were, in that order, less than 100 nM and 50 to 200 µM. With `CC/C=C\C/C=C\C/C=C\C/C=C\C/C=C\CCCC(=O)Nc1ccc(S(=O)(=O)N(CC(C)C)C[C@@H](O)[C@H](Cc2ccccc2)NC(=O)O[C@H]2CO[C@H]3OCC[C@H]32)cc1` [VII-2, (3R,3aS,6aR)-hexahydrofuro[2,3-b]furan-3-yl((2S,3R)-3-hydroxy-4-(4-((5Z,8Z,11Z,14Z,17Z)-icosa-5,8,11,14,17-pentaenamido)-N-isobutylphenylsulfonamido)-1-phenylbutan-2-yl)carbamate], the IC50 in assay [2] (setting [6]) is less than 100 nM. As for `CC/C=C\C/C=C\C/C=C\C/C=C\C/C=C\C/C=C\CCC(=O)NCCNC(=O)OC[C@H]1OC(n2cc(C)c(=O)[nH]c2=O)C[C@@H]1N=[N+]=[N-]` (stereo partly shown) [Compound V-5], the IC50 in assay [2] (setting [6]) is greater than 100 nM; in assay [1] (setting [5]), less than 50 µM.

Consider `C=C1[C@H](COP(=O)(NCCNC(=O)CCC/C=C\C/C=C\C/C=C\C/C=C\C/C=C\CC)OC)[C@@H](O)C[C@@H]1n1cnc2c(=O)nc(N)[nH]c21` (stereo partly drawn) [II-48, ((1R,3S,5S)-3-(2-amino-6-oxo-3H-purin-9(6H)-yl)-5-hydroxy-2-methylenecyclopentyl)methyl methyl (2-((5Z,8Z,11Z,14Z,17Z)-icosa-5,8,11,14,17-pentaenamido)ethyl)phosphoramidate], for which, in assay [1] (setting [3]), the IC50 lay in the range of 50 to 200 µM.

Regarding `CC/C=C\C/C=C\C/C=C\C/C=C\C/C=C\C/C=C\CCC(=O)NCCNP(=O)(OC[C@H]1OC(n2cc(C)c(=O)[nH]c2=O)C[C@@H]1N=[N+]=[N-])Oc1ccccc1` (stereo partly shown) [II-25], the figures for the 50% inhibitory concentration (IC50) in assay [2] (setting [4]) and in assay [1] (setting [3]) were less than 100 nM and less than 50 µM, respectively. In the case of `CC/C=C\C/C=C\C/C=C\C/C=C\C/C=C\C/C=C\CCC(=O)Nc1ccn(C2CS[C@H](CO)O2)c(=O)n1` (stereo partly shown) [Compound V-18], the concentration for half-maximal inhibition (IC50) in assay [2] (setting [6]) was less than 100 nM; in assay [1] (setting [5]), greater than 200 µM. As for `CC/C=C\C/C=C\C/C=C\C/C=C\C/C=C\C/C=C\CCC(=O)NCCNP(=O)(OC[C@@H]1O[C@H](n2ccc(N)nc2=O)CS1)Oc1ccccc1` (stereo partly drawn) [II-67, ((2R,5S)-5-(4-amino-2-oxopyrimidin-1(2H)-yl)-1,3-oxathiolan-2-yl)methyl phenyl (2-((4Z,7Z,10Z,13Z,16Z,19Z)-docosa-4,7,10,13,16,19-hexaenamido)ethyl)phosphoramidate], the half-inhibitory concentration (IC50) is less than 100 nM in assay [2] (setting [4]) and less than 50 µM in assay [1] (setting [3]).
